The text below walks through data of ChEMBL document CHEMBL3507680, “University of Dundee, Gates Library screen for HepG2 cell viability”.

A short description of this series: Human HepG2 cell viability assay in 384 well format. Type of series: toxicity, cell-based. More on the design: dose 125 nL, time 70.5 hour; concentration not given beside the values. The following applies: HepG2 cells, read-out: Inhibition.

With `CC(C)c1ocnc1C(=O)NC1(c2cccc(F)c2)CCOCC1`, the cytotoxicity at 70.5 h was -3.27%.
The result for `O=C(C1CC1)N1CCC(Oc2ccccc2Cl)CC1` reads 20.6%; that for `CC(C)C1CN(C(=O)c2cccs2)CCS1` (stereo not drawn), -4.53%.
On to `CCN(Cc1ccccc1)C(=O)CN1CCCCC1Cn1cncn1` (stereo not drawn), for which the cytotoxicity at 70.5 h is -6.76%.
For `Cc1cc(NC(=O)C(c2cccc(F)c2)N2CCOCC2)sn1` (stereo not drawn), the cytotoxicity at 70.5 h stood at 8.13%.
In the case of `O=C(NCCN1CCOCC1)N(CCCO)C1CCCc2ccccc21` (stereo not drawn) it was -2.32%; in that of `CC(C)C(=O)N1CCN(Cc2csc(-c3ccccn3)n2)CC1`, -7.7%.
The result for `COc1cc(NC(=O)c2ccc(C)c(F)c2)c(C(=O)N(C)C)cc1OC` reads -12.5%.
In the case of `Cc1ccc(S(=O)(=O)Nc2ccc(-n3cccc3C(=O)O)c(C)c2)cc1`, the cytotoxicity at 70.5 h is -6.38%.
On to `CCC(CC)C(=O)NCc1cn2cc(Br)ccc2n1`, for which the cytotoxicity at 70.5 h was -8.77%.
Take `COc1c(Br)cccc1CCNC(=O)c1ncoc1C`: the cytotoxicity at 70.5 h amounted to 9.9%.
In the case of `CN(Cc1ccccn1)C(=O)c1ccc2c(c1O)OC(C)(C)C2` it was 11.6%.
Take `Cc1oc(-c2ccc(Cl)cc2)nc1C(=O)NC1=NCCS1`: the cytotoxicity at 70.5 h was determined as 11.2%.
For the molecule `CC(c1ccccc1)N(C)C(=O)CN1CCCc2cc(F)cc(F)c21` (stereo not drawn), the cytotoxicity at 70.5 h stood at 12.8%.
In the case of `O=C(CNc1cc(Br)ccc1Br)NC1CCS(=O)(=O)C1` (stereo not drawn) it was -14.1%.
For `Cc1oc(-c2ccccc2)nc1CC(=O)NC1=NCCS1`, the cytotoxicity at 70.5 h is -11%.
Consider `NC(=O)C1CCN(CC(=O)N2CCCC2c2ccsc2)CC1` (stereo not drawn), for which the cytotoxicity at 70.5 h was -4.16%.
For the molecule `Cc1nnc2n1CCN(C(=O)CN1C(=O)C(C)Oc3ccccc31)C2` (stereo not drawn), the cytotoxicity at 70.5 h was -7.32%.
The result for `Clc1cncc(NCc2cccc(COC3CCOCC3)c2)n1` reads -6.08%.
In the case of `CS(=O)(=O)CCCOc1cccc(-n2cccn2)c1` it was 12.8%; in that of `CCN1CCN(S(=O)(=O)c2c[nH]c(C(C)C)n2)c2ccccc21`, -5.4%.
Consider `CC(C)Cc1noc(COc2ccc(N(C)C(N)=O)cc2)n1`, for which the cytotoxicity at 70.5 h was -6.27%.
`Clc1cnccc1NCc1cccc(COC2CCOCC2)c1`: the cytotoxicity at 70.5 h is -0.494%.
The result for `O=C(C1CCCOC1)N1CCc2ccc(F)cc21` (stereo not drawn) reads 1.26%; that for `Cc1noc(C)c1CNc1ccc2nc(C3CC3)sc2c1`, -1.96%.
The result for `O=C1CC2(CCSC2)C(=O)N1Cc1ncc(-c2ccccc2)o1` (stereo not drawn) reads -2.34%.
The result for `O=C(CC(F)(F)F)NC(c1ccc(Cl)cc1)c1ncon1` (stereo not drawn) reads -3.08%; that for `CN(Cc1nnc(C2CC2)o1)C(c1ccc(F)cc1)c1cccnc1` (stereo not drawn), 0.0755%; that for `CC(C)CC(C(=O)N(C)Cc1ncnn1C)N1CCCCC1=O` (stereo not drawn), -2.2%.
Turning to `CC(CCNC(=O)N1CCC1)N(C)C(=O)OC(C)(C)C` (stereo not drawn), the cytotoxicity at 70.5 h was -0.749%.
With `O=C(c1ncoc1-c1ccco1)N(Cc1ccco1)CC1CCCO1` (stereo not drawn), the cytotoxicity at 70.5 h is -3.69%.
In the case of `Cc1ccc(CNCc2c[nH]nc2C(C)(C)C)c(OC2CCOC2)c1` (stereo not drawn) it was -5.05%; in that of `CC(C)NC(=O)CN(C)CC(=O)/N=c1/cc[nH]n1C(C)C1CC1` (stereo not drawn), 34.2%; in that of `COc1c(C)cnc(CNC(=O)CCOCC(C)C)c1C`, -4.31%.
In the case of `CC(C)Cn1ncc2cc(C(=O)N(C)CCc3ccccc3)cnc21` it was -8.96%.
In the case of `Cc1occc1C(=O)N1CCC(C(O)c2ccc(F)cc2)CC1` (stereo not drawn) it was -4.29%; in that of `CC(C1CC1)n1nccc1NC(=O)CN(C)C(=O)OC(C)(C)C` (stereo not drawn), 27.9%.
On to `Cc1nc(CNc2ncc(Br)cn2)n[nH]1`, for which the cytotoxicity at 70.5 h was -5.62%.
In the case of `CC(C)C(C)N(C(=O)c1cc2c([nH]c1=O)CCCC2=O)C1CC1` (stereo not drawn) it was -7.9%; in that of `CS(=O)(=O)N1CCOC2(CCCC2)C1`, -5.25%; in that of `O=c1[nH]nc(CNc2ncc(Br)cn2)[nH]1`, -2.47%.
In the case of `OCCCNC1CCc2cc3c(cc21)OCCO3` (stereo not drawn) it was -4.1%.
Take `CC(=O)N(C)CCc1nc(-c2cc(C(N)=O)co2)cs1`: the cytotoxicity at 70.5 h was -6.25%.
The result for `CC(C)c1cccc(-n2cc(O)c(C(N)=O)n2)c1` reads 25.8%; that for `CC(C)CCN(C)C(=O)c1cnc2c(cnn2CC(C)C)c1`, 1.58%.
`CC1CCCN(S(=O)(=O)N2CCOC3(CCCC3)C2)C1` (stereo not drawn): the cytotoxicity at 70.5 h stood at 10.1%.
Turning to `Cc1cc(CNC(=O)c2cc(C(C)C)n(C)n2)ccc1S(C)(=O)=O`, the cytotoxicity at 70.5 h is -8.39%.
Take `COCCN(CCN(C)C)C(=O)NC1CCc2ccccc2C1` (stereo not drawn): the cytotoxicity at 70.5 h was -5.75%.
In the case of `O=S(=O)(c1cccnc1)N1CCN(CC(O)c2ccccc2)CC1` (stereo not drawn) it was -3.21%.
The result for `NC(=O)NC(CC(=O)NCCc1cccc(F)c1)c1cccs1` (stereo not drawn) reads 17%; that for `Cc1cc(NC(=O)CN(CC(C)O)c2ccccc2)on1` (stereo not drawn), -3.15%; that for `CC(=O)NCCSCCOc1cccc(Br)c1`, 17.6%.
Regarding `O=C(CCc1ccccn1)NCC(O)c1ccc(Cl)cc1Cl` (stereo not drawn), the cytotoxicity at 70.5 h is -1.56%.
As for `O=C(CCCc1ccccn1)NCC(O)c1ccccc1Cl` (stereo not drawn), the cytotoxicity at 70.5 h is 3.77%.
For the molecule `CSc1nc(C2CC2)nc(C)c1C(=O)NCc1ncc(C)o1`, the cytotoxicity at 70.5 h is -2.47%.
Regarding `Cc1nc(CNC(=O)NC2CCN(c3ncccc3Cl)C2)no1` (stereo not drawn), the cytotoxicity at 70.5 h is -3.51%.
On to `O=C(NCc1cscn1)NC1CCN(c2ncccc2Cl)C1` (stereo not drawn), for which the cytotoxicity at 70.5 h was -2.49%.
In the case of `CC(C)c1ccc(S(=O)(=O)NC2(CC(N)=O)CCC2)cc1` it was 2.8%; in that of `CC(C)n1ncc2c1NC(=O)C(C#N)C21CCCCC1` (stereo not drawn), -9.51%; in that of `CC(C)C(NC(=O)c1ccc(Cl)cc1Cl)C(=O)Nc1ccn(C)n1` (stereo not drawn), 1.6%.
The result for `COC(=O)CN(Cc1ccccc1C)C(=O)COCC1CC1` reads -2.06%; that for `CN(C(=O)c1cccnc1OCC(F)F)c1ccc2c(c1)CCO2`, -9.98%; that for `CCN(C)CC1CCN(C(=O)Nc2ccc(C)cc2)C1` (stereo not drawn), -3.05%.
The result for `Cc1ncc(CN(C)CC(O)c2cccc(C(F)(F)F)c2)s1` (stereo not drawn) reads 17.1%; that for `CCC(CC)c1nnc(NC(=O)N2CCC(C(N)=O)CC2)s1`, -0.155%.
For the molecule `Cc1ccc2nc(NCCN3CCOCC3)n(C)c(=O)c2c1`, the cytotoxicity at 70.5 h was found to be 0.444%.
As to `NC(=O)C1CCCN1Cc1ccccc1NC(=O)Cc1cccc(F)c1` (stereo not drawn), the cytotoxicity at 70.5 h was -0.431%.
In the case of `CCOc1ccnc(N2CCN(C(=O)CCc3ccsc3)CC2)n1` it was -7.66%; in that of `CC(C)CNC(=O)CCN1C(=O)CCc2cc(F)ccc21`, -4.13%.
In the case of `Cn1ncnc1NS(=O)(=O)c1ccc(F)cc1Cl` it was -1.04%; in that of `CCOc1ccnc(N2CCN(C(=O)CCc3ccncc3)CC2)n1`, 0.226%.
Regarding `CC(C(=O)N1CCc2sccc2C1)N1CCC(S(N)(=O)=O)CC1` (stereo not drawn), the cytotoxicity at 70.5 h is -4.51%.
On to `Cc1cccc(CNc2nnc(C(C)C)o2)c1`, for which the cytotoxicity at 70.5 h came to 0.308%.
In the case of `Cc1ncc(CN(C)CC(O)c2ccc(Br)cc2)s1` (stereo not drawn) it was -12%; in that of `COc1ccnc(N2CCCN(C(=O)CCc3cnn(C)c3)CC2)n1`, -10.3%.
Take `CCOCc1nnc(NCc2cccnc2)o1`: the cytotoxicity at 70.5 h is -7.36%.
In the case of `Cn1nccc1NCc1cc2cc(F)ccc2o1` it was 23.2%; in that of `CSC1(CNC(=O)c2cccc(-n3cccn3)c2)CCOCC1`, 1.71%.
The result for `Cc1cc(CN(C)C(=O)CN2CCCC2=O)no1` reads -15.2%; that for `O=C(CCn1c(=O)oc2ccccc21)NCC(O)c1ccccc1` (stereo not drawn), -3.91%.
For `O=C(CCCNC(=O)NCC1CCCO1)Nc1ccc(Cl)cc1` (stereo not drawn), the cytotoxicity at 70.5 h is -8.55%.
With `CN(CCCc1cc(-c2ccc(F)cc2)n(C)n1)CC(=O)NC(N)=O`, the cytotoxicity at 70.5 h is -8.03%.
In the case of `Cc1ncsc1CNC(=O)NCC1(c2ccc3c(c2)OCO3)CC1` it was 19%; in that of `O=C(Nc1ccc(F)cc1)C1CSCN1` (stereo not drawn), -10.2%.
The result for `N#CCCN(CCN1CCOCC1)Cc1ccc(F)c(Br)c1` reads -3.12%.
The result for `O=C(NCCn1cccc1)c1c(O)cc(F)cc1F` reads -6.2%; that for `CC(C)c1nncn1CCNC(=O)c1c(O)cc(F)cc1F`, -4.67%.
`CC(C)(C)OC(=O)N1CCN(S(C)(=O)=O)C2(CCCCC2)C1`: the cytotoxicity at 70.5 h is -1.8%.
In the case of `O=C(NCC1(O)CCSC1)c1cccc(-n2cccn2)c1` (stereo not drawn) it was -10.4%; in that of `CC(C)(NS(C)(=O)=O)c1nc(-c2ccncc2)no1`, 18.6%; in that of `COc1ccc(CN(CCC#N)CCN2CCOCC2)cc1OC`, -10.2%.
In the case of `OC(CNC1CCSCC1)c1cccc(OCc2ccccc2)c1` (stereo not drawn) it was 23.4%.
The result for `O=C(OCc1cc(=O)n2cc(Br)ccc2n1)c1ccc2c(c1)OCO2` reads -5.88%.
In the case of `Cc1ccc2cccc(S(=O)(=O)N(C)CC3CCN(C)CC3)c2n1`, the cytotoxicity at 70.5 h is -7.7%.
Regarding `Cc1ccc2cccc(S(=O)(=O)N(C)CC3CCN(C)C3)c2n1` (stereo not drawn), the cytotoxicity at 70.5 h is -0.784%.
As for `O=C(NCC1(O)CCC1)c1cccc(-n2cccn2)c1`, the cytotoxicity at 70.5 h was -11.6%.
As for `CCC(O)CN(C)Cc1nnc2ccccn12` (stereo not drawn), the cytotoxicity at 70.5 h was found to be 9.61%.
In the case of `O=C1CN(c2ccc(CNc3cncc(-n4cccn4)n3)cc2)CCN1` it was -0.149%; in that of `CC(C)(C)c1cnc(CN2CCC(NC(=O)NC3CCCCC3)CC2)o1`, 1.07%; in that of `CCCNC(=O)c1ccc(-c2ccco2)[nH]c1=O`, -2.1%.
In the case of `CC(C)CCNC(=O)c1ccc(-c2ccco2)[nH]c1=O` it was -1.63%; in that of `CCc1noc(CN(CC(=O)N2CCCCC2)c2cccc(C)c2)n1`, -3.01%; in that of `Cc1n[nH]c2ncc(CNC3CCN(Cc4ccccn4)CC3)cc12`, -6.34%.
